# Measured values: patent publication US20130259944A1, “METHODS AND COMPOSITIONS FOR TREATING CANCER WITH PLATINUM PARTICLES” (EMORY UNIVERSITY, priority 2012, published 2013)
# Experiments:
# [1] = test system: H292 cells (EGFR-positive NSCLC); assay: Intracellular platinum accumulation in H292 cells (ICP-MS); format: cell-based, human; details: 0.4 μg/mL, 24 h
# Experimental: (§1) EGFR-negative H520 cells were used as negative control. […] The cell pellet was digested in 65% (v/v) nitric acid at 75° C. for 2 h. The Pt content was analyzed by ICP-MS. Cellular Pt levels were expressed in ng Pt/10^6 cells. To further check the targeting specificity of EHDDP nanoparticles in vitro, EGFR was knocked down by EGFR small interfering RNAs (siRNA). H292 cells were transfected with EGFR siRNA (sc-29301 from Santa Cruz Bio) (100 pmol) or scrambled siRNA (sc-37007 from Santa Cruz Bio) (100 pmol) as a nonspecific control according to the manufacturer's protocols. Briefly, in a 6-well tissue culture plate, 2×10^5 cells per well were seeded in 2 mL of antibiotic-free RPMI 1640 medium supplemented with 10% FBS and, on the following day, transfected with siRNAs at the final concentration of 100 pmol. […] Mouse anti-β-actin antibody (Trevigen, Gaithersburg, Md.) was used as a sample loading control. Immunostained protein bands were detected with an enhanced chemiluminescence kit (Thermo Scientific, Rockfield, Ill.). […] The data are shown as mean±SD (n=3). DDP-DNA adduct formation was measured using 1×10^7 cells per condition. […] In addition, the expression level of the phosphorylation of H2A.X was detected by Western Blot as described above using the Phospho-Histone H2A.X (Ser139) (20E3) rabbit mAb (Cell Signaling Technology, Inc.).
# [2] = test system: H520 cells (EGFR-negative NSCLC); assay: Intracellular platinum accumulation in H520 cells (ICP-MS); format: cell-based, human; details: 24 h
# Experimental: as §1
# [3] = test system: H292 cells; assay: Pt-DNA adduct formation in vitro (ICP-MS of purified DNA); format: cell-based, human; details: 37° C., 24 h
# Experimental: as §1
# [4] = Pt-DNA adducts in kidney and tumor in vivo; parameters: species or system nude mice; details: single iv dose Pt 2.5 mg/kg
# Experimental: (§2) Blood, organs (liver, spleen, kidney, and lung), and tumor tissue were harvested, half of the organs were dissolved in 65% (v/v) nitric acid at 75° C. for 2 h, and Pt concentrations were measured by ICP-MS. The blood and other half of the organs were used to extract DNA, and the Pt concentration in DNA was quantified as described above.
# [5] = Concentration profile of Pt in mice peripheral blood; format: in vivo, nude mice; details: for Pt concentration in blood: Pt 2.5 mg/kg
# Experimental: The whole blood samples were dissolved in 65% (v/v) nitric acid at 75° C. for 2 h, and Pt concentration was measured by ICP-MS.
# [6] = test system: H292 cells; assay: SRB cytotoxicity assay; format: cell-based, human; details: 96 h
# Experimental: H292 and H520 cells maintained in medium with 2% FBS were seeded in 96-well plates at a density of 5000 cells/well overnight prior to drug treatment. […] Cells were fixed for 1 h with 10% cold trichloroacetic acid. Plates were washed five times in water, air-dried, and then stained with 0.4% SRB for 10 min. […] Plates were read in a microplate reader by measuring absorbance at 492 nm. The percent survival was then calculated based upon the absorbance values relative to untreated samples. The experiment was repeated three times.
# [7] = Biodistribution of Pt in organs and tumor of H292 tumor-bearing mice; format: in vivo, nude mice
# Experimental: as §2
compound,measurement,setting,value
"N.N.[Cl][Pt][Cl] [DDP, cis-diamminedichloroplatinum(II)]",intracellular Pt level,[1],2.49±0.39 ng Pt/10^6 cells
same,intracellular Pt accumulation,[2],3.38±0.42 ng Pt/10^6 cells
same,Pt level associated with cellular DNA (Pt-DNA adducts),[3],19.68±4.35 pg Pt/μg DNA
same,Pt concentration in DNA purified from kidney,[4]; 4 h,71.78±9.02 pg/μg DNA
same,Pt-DNA adducts in NSCLC xenograft tumors,[4]; 4 h,92.21±8.96 pg/μg DNA
same,Pt concentration in DNA purified from kidney,[4]; 24 h,25.72±2.78 pg/μg DNA
same,Pt-DNA adducts in NSCLC xenograft tumors,[4]; 24 h,94.68±15.01 pg/μg DNA
same,Pt concentration in blood,[5]; 30 min after iv injection,1.17±0.12 ng/mg blood
same,Pt concentration in blood,[5]; 8 h after iv injection,0.36±0.09 ng/mg blood
same,time of elimination by the renal system,[5]; discussion statement,< 5 min
same,IC50 (Pt concentration),[6],2.12 ± 0.20 µg/mL
same,tumor Pt level,[7]; 10 min after iv injection,3.58±0.91 ng/mg dry tissue
same,Pt concentration in kidney,[7]; 10 min after systemic administration,35.25±5.70 ng/mg dry tissue
same,Pt concentration in kidney,[7]; 4 h,11.9±0.79 ng/mg dry tissue
same,accumulation of Pt in the liver,"[7]; 4 h, single iv dose Pt 2.5 mg/kg",7.71±1.61 ng/mg dry tissue
same,Pt concentration in kidney,[7]; 24 h,6.39±0.67 ng/mg dry tissue
same,tumor Pt level,[7]; 24 h after iv injection,1.48±0.52 ng/mg dry tissue
same,decrease of Pt concentration in the liver,[7]; 24 h compared with 4 h,20%
same,"Pt concentrations in the liver, spleen and kidney, comparison between treatments",[7]; 28 days after treatment,no differences
same,decrease of Pt accumulation in the liver,[7]; from 10 min to 4 h,42.5%
same,decrease of Pt accumulation in the spleen,[7]; from 10 min to 4 h,82.86%
same,decrease in Pt accumulation in the kidney,[7]; within 4 h,65.1%
